Consider 1 compound from patent US20140039050A1, “METHOD FOR […] INFECTION IN A FE[…]” (priority 2011, published 2014).

What all share (type): cell-based
The test system of one assay is bacteria. Kind of assay: Serial dilution and cultivation on Petri films after exposure of yeast cream solution (Method 1), bacteria. The note with it: exposure +30° C. 30 minutes, incubated +35° C. 48 hours. As to the method:
(§1) Total viable bacteria and viable yeasts in the samples herein were measured as colony forming units (CFU) per unit of volume (i.e., CFU/ml). The viability of yeasts and their ability to reproduce were measured by using a microscopical method, where specific dye (erythrosine) was used to visualize the amount and form (live, dead, budding) of yeast cells.
(§2) The yeast cream samples (recovered from the wine, through a centrifuge) were diluted with lake water in a ratio of 30%+70%, respectively. The diluted yeast cream samples (later on called yeast cream solutions) were exposed to varying concentrations of performic acid in the equilibrium solution as follows: 49.5 ppm, 74.3 ppm and 99 ppm. In a control sample, no performic acid was added to the yeast cream solution. The effect of performic acid on bacteria was determined by one method (method 1), and on yeast cells by two methods (methods 1 and 2).
(§3) The exposed samples and the control sample were held in +30° C. for 30 minutes, after which the amount of survived microbes was enumerated. The method used was a Serial dilution and cultivation method, where the effect of performic acid on the yeast cream solution was measured via dilution and cultivation of the sample after the exposure, to enumerate the amount of microbial growth. This method entail the dilution of each is sample by a factor large enough to enable clear separation of individual microbial colonies on Petri™ films (from 3M); thus allowing the colonies to be individually counted. Where diluted samples had been applied and inoculated in, the Petri™ films were incubated at +35° C. for 48 hours (bacteria) or at +30° C. for 48 hours (yeasts).

The next assay has as its system yeasts. Kind of assay: Serial dilution and cultivation on Petri films after exposure of yeast cream solution (Method 1), yeasts. The note with it: exposure +30° C. 30 minutes, incubated +30° C. 48 hours. How it is done: as §1, §2, §3
The test system of the next assay is yeast cells. As to the kind of experiment: Neubauer chamber microscopy with erythrosine dye (Method 2), yeast cell count, viability and budding. The note with it: exposure +30° C. 5 hours; for Reproductive yeast cells %: budding cells over total living cells; for CFU/ml Yeasts 48 h, Neubauer count: total yeast cells; for Yeast cell viability %: viable cells over total cells (live+dead). How it is done:
as §1, §2
The exposed samples and the control sample were held in +30° C. for 5 hours, after which the specific parameters of yeast cells were measured. These parameters included the amount of living yeast cells, dead yeast cells and budding yeast cells (i.e. reproducing yeast cells). The method used was a standard method, commonly adopted by Brazilian Sugar Cane Industry mills. In the method, a Neubauer chamber was filled with approximately 10 μl of the exposed sample, where the erythrosine dye had been mixed in. On the cover slip, a drop of immersion oil was added, and the above mentioned yeast cell parameters were evaluated by using an immersion objective (100×) of the microscope. The cells that presented pink coloration were counted as dead cells, and uncolored cells as living cells. The budding cells were determined on the basis of the shape of the yeast cell.
The total amount of the yeast cells was counted and compared to the result obtained with Method 1. Results are provided in Table 1 (Neubauer count of yeast cells). The cell viability indicates the percentage of viable cells over total cells (live+dead). The cell reproductive % indicates the percentage of budding cells over total living cells.

[1] abbreviates: 49.5 ppm performic acid in yeast cream solution.
Where [2] appears, read: 74.3 ppm performic acid in yeast cream solution.
[3] abbreviates: 99 ppm performic acid in yeast cream solution.

As to `O=COO` [performic acid], the “CFU/ml Bacteria 48 h, MIC” value with bacteria (setting [1]) stood at 60 CFU/ml; in the assay on bacteria (setting [2]), 70 CFU/ml; in the assay on bacteria (setting [3]), 30 CFU/ml. For the same compound, the “CFU/ml Yeasts 48 h, MIC” value is recorded as 1 000 000 000 CFU/ml in the assay with yeasts (setting [1]), 6 100 000 000 CFU/ml in the assay with yeasts (setting [2]) and 1 000 000 000 CFU/ml in the assay on yeasts (setting [3]). Moreover, the “Reproductive yeast cells %” value with yeast cells (setting [1]) stood at 6.8%; in the assay with yeast cells (setting [2]), 8.9%; in the assay on yeast cells (setting [3]), 4.1%. For the same compound, the “CFU/ml Yeasts 48 h, Neubauer count” value in the assay on yeast cells (setting [1]) was 380 000 000 CFU/ml; with yeast cells (setting [2]), 400 000 000 CFU/ml; in the assay on yeast cells (setting [3]) it was 640 000 000 CFU/ml. Further, the entries for the “Yeast cell viability %” value in the assay on yeast cells (setting [1]), in the assay with yeast cells (setting [2]) and in the assay with yeast cells (setting [3]) were 71.1%, 72.1% and 72.3%, respectively.
